In BindingDB's records for doi:10.7270/Q2WW7G03 (The Scripps Research Institute Molecular Screening Center, 2007):

Target: T1, 5-hydroxytryptamine receptor 1A (Homo sapiens, UniProt P08908)
T1 sequence (P08908 whole entry): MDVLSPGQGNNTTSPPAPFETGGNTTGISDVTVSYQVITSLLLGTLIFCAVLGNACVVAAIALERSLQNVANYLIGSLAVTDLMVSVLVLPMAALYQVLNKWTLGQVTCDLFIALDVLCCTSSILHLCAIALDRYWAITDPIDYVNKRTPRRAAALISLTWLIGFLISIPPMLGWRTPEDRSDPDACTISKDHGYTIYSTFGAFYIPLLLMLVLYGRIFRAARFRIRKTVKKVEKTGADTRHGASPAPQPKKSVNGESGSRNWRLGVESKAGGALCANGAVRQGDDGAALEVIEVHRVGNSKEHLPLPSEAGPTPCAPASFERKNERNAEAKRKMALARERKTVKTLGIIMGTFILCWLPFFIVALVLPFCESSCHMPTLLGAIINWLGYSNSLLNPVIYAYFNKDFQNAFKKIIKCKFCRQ
Experiment: serotonin 1A receptor activation, dose response (AID 718)
Details: pH 7.4; 23 °C

Work on `Cn1cc(C(Cc2ccccc2)N=O)c2ccccc21` (stereo not drawn) [1-(1-methyl-3-indolyl)-2-phenylethanone oxime] yielded an EC50 of 50 µM.

Compound `CN1CCN(C(N=O)c2nonc2N)CC1` (stereo not drawn) has an EC50 of 50 µM.

`CCOC(=O)C1C(C)=NC(=O)NC1c1ccc(OCC(=O)Nc2ccccc2)c(OC)c1` (stereo not drawn) [SMR000093032] showed an EC50 of 50 µM.
